Results published in PubChem BioAssay (NCI).
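Compound exposure: 48 hours, 5 concentrations, 96-well plates. Abbreviation: GI50, concentration required for 50% inhibition of growth. Definition used: TGI = concentration required for complete inhibition of growth.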

Legend:
Test in all cases: growth of human tumour cells (NCI), 48 h
CCRF-CEM leukemia = tested on: CCRF-CEM leukemia
IGROV1 ovarian = tested on: IGROV1 ovarian
SR leukemia = tested on: SR leukemia
OVCAR-4 ovarian = tested on: OVCAR-4 ovarian
NCI/ADR-RES ovarian = tested on: NCI/ADR-RES ovarian
SK-OV-3 ovarian = tested on: SK-OV-3 ovarian
OVCAR-8 ovarian = tested on: OVCAR-8 ovarian
MALME-3M melanoma = tested on: MALME-3M melanoma
UO-31 renal = tested on: UO-31 renal
EKVX NSCLC = tested on: EKVX NSCLC
COLO 205 colon = tested on: COLO 205 colon
SK-MEL-28 melanoma = tested on: SK-MEL-28 melanoma
SK-MEL-2 melanoma = tested on: SK-MEL-2 melanoma
DU-145 prostate = tested on: DU-145 prostate
MOLT-4 leukemia = tested on: MOLT-4 leukemia
HT29 colon = tested on: HT29 colon
SNB-19 CNS = tested on: SNB-19 CNS
OVCAR-5 ovarian = tested on: OVCAR-5 ovarian
HCC-2998 colon = tested on: HCC-2998 colon
A498 renal = tested on: A498 renal
LOX IMVI melanoma = tested on: LOX IMVI melanoma
NCI-H460 lung = tested on: NCI-H460 lung
U251 CNS = tested on: U251 CNS
SF-295 CNS = tested on: SF-295 CNS
NCI-H226 lung = tested on: NCI-H226 lung
K-562 leukemia = tested on: K-562 leukemia
MCF7 breast = tested on: MCF7 breast
MDA-MB-435 = tested on: MDA-MB-435
HOP-62 NSCLC = tested on: HOP-62 NSCLC
SW-620 colon = tested on: SW-620 colon
SK-MEL-5 melanoma = tested on: SK-MEL-5 melanoma
KM12 colon = tested on: KM12 colon
TK-10 renal = tested on: TK-10 renal
SF-268 CNS = tested on: SF-268 CNS
HOP-92 NSCLC = tested on: HOP-92 NSCLC
HS 578T breast = tested on: HS 578T breast
RPMI-8226 leukemia = tested on: RPMI-8226 leukemia
NCI-H23 lung = tested on: NCI-H23 lung
CAKI-1 renal = tested on: CAKI-1 renal
HCT-15 colon = tested on: HCT-15 colon
UACC-62 melanoma = tested on: UACC-62 melanoma
HCT-116 colon = tested on: HCT-116 colon
SNB-75 CNS = tested on: SNB-75 CNS
UACC-257 melanoma = tested on: UACC-257 melanoma
SN12C renal = tested on: SN12C renal
786-0 renal = tested on: 786-0 renal
OVCAR-3 ovarian = tested on: OVCAR-3 ovarian
HL-60(TB) leukemia = tested on: HL-60(TB) leukemia
RXF 393 renal = tested on: RXF 393 renal
A549 NSCLC = tested on: A549 NSCLC
BT-549 breast = tested on: BT-549 breast
MDA-MB-231 breast = tested on: MDA-MB-231 breast
T-47D breast = tested on: T-47D breast
PC-3 prostate = tested on: PC-3 prostate
SF-539 CNS = tested on: SF-539 CNS
ACHN renal = tested on: ACHN renal
NCI-H522 lung = tested on: NCI-H522 lung
M14 melanoma = tested on: M14 melanoma

With `O=C(CCCCCCNC(=O)c1cnc(N(c2ccccc2)c2ccccc2)nc1)NO` the GI50 (CCRF-CEM leukemia) was 1.03 µM, the TGI (CCRF-CEM leukemia) was over 100 µM and the GI50 (IGROV1 ovarian) was 3.2 µM. It also gave a TGI (IGROV1 ovarian) of 16.6 µM, a GI50 (SR leukemia) of 1.22 µM and a TGI (SR leukemia) of over 100 µM. It also gave a GI50 (OVCAR-4 ovarian) of 5.56 µM, a TGI (OVCAR-4 ovarian) of 72.9 µM and a GI50 (NCI/ADR-RES ovarian) of 14.4 µM. For the same molecule, the TGI (NCI/ADR-RES ovarian) was over 96.8 µM, the GI50 (SK-OV-3 ovarian) was 3.25 µM and the TGI (SK-OV-3 ovarian) was 23.8 µM. The GI50 (OVCAR-8 ovarian) was 2.25 µM, the TGI (OVCAR-8 ovarian) was over 100 µM and the GI50 (MALME-3M melanoma) was 0.73 µM. The TGI (MALME-3M melanoma) was 5.03 µM, the GI50 (UO-31 renal) was 4.63 µM and the TGI (UO-31 renal) was 36.6 µM. It also gave a GI50 (EKVX NSCLC) of 4.95 µM, a TGI (EKVX NSCLC) of over 100 µM and a GI50 (COLO 205 colon) of 1.79 µM. It also gave a TGI (COLO 205 colon) of 4.1 µM, a GI50 (SK-MEL-28 melanoma) of 3.41 µM and a TGI (SK-MEL-28 melanoma) of 33.3 µM. For the same molecule, the GI50 (SK-MEL-2 melanoma) was 1.9 µM, the TGI (SK-MEL-2 melanoma) was 8.36 µM and the GI50 (DU-145 prostate) was 3.82 µM. It also gave a TGI (DU-145 prostate) of over 100 µM, a GI50 (MOLT-4 leukemia) of 2.13 µM and a TGI (MOLT-4 leukemia) of over 100 µM. It also gave a GI50 (HT29 colon) of 2.29 µM, a TGI (HT29 colon) of over 35.4 µM and a GI50 (SNB-19 CNS) of 3.67 µM. It also gave a TGI (SNB-19 CNS) of 31.3 µM, a GI50 (OVCAR-5 ovarian) of 3.14 µM and a TGI (OVCAR-5 ovarian) of 26.1 µM. It also gave a GI50 (HCC-2998 colon) of 3.38 µM, a TGI (HCC-2998 colon) of 12.5 µM and a GI50 (A498 renal) of 2.5 µM. For the same molecule, the TGI (A498 renal) was 14.8 µM, the GI50 (LOX IMVI melanoma) was 2.15 µM and the TGI (LOX IMVI melanoma) was 11.4 µM. It also gave a GI50 (NCI-H460 lung) of 2.75 µM, a TGI (NCI-H460 lung) of over 100 µM and a GI50 (U251 CNS) of 3 µM. It also gave a TGI (U251 CNS) of 15.6 µM, a GI50 (SF-295 CNS) of 2.95 µM and a TGI (SF-295 CNS) of 10.8 µM. The GI50 (NCI-H226 lung) was 16.6 µM, the TGI (NCI-H226 lung) was over 91.4 µM and the GI50 (K-562 leukemia) was 2.47 µM. For the same molecule, the TGI (K-562 leukemia) was over 100 µM, the GI50 (MCF7 breast) was 2.99 µM and the TGI (MCF7 breast) was over 67.1 µM. For the same molecule, the GI50 (MDA-MB-435) was 2.04 µM, the TGI (MDA-MB-435) was over 36.8 µM and the GI50 (HOP-62 NSCLC) was 3.46 µM. It also gave a TGI (HOP-62 NSCLC) of 28.1 µM, a GI50 (SW-620 colon) of 1.94 µM and a TGI (SW-620 colon) of over 29.7 µM. For the same molecule, the GI50 (SK-MEL-5 melanoma) was 1.82 µM, the TGI (SK-MEL-5 melanoma) was 5.48 µM and the GI50 (KM12 colon) was 3.26 µM. It also gave a TGI (KM12 colon) of 21.7 µM, a GI50 (TK-10 renal) of 2.07 µM and a TGI (TK-10 renal) of 12.5 µM. The GI50 (SF-268 CNS) was 3.77 µM, the TGI (SF-268 CNS) was 33.2 µM and the GI50 (HOP-92 NSCLC) was 2.13 µM. For the same molecule, the TGI (HOP-92 NSCLC) was 15.7 µM, the GI50 (HS 578T breast) was 2.54 µM and the TGI (HS 578T breast) was over 100 µM. It also gave a GI50 (RPMI-8226 leukemia) of 1.29 µM, a TGI (RPMI-8226 leukemia) of over 100 µM and a GI50 (NCI-H23 lung) of 3.97 µM. The TGI (NCI-H23 lung) was 38.6 µM, the GI50 (CAKI-1 renal) was 6.38 µM and the TGI (CAKI-1 renal) was 43.3 µM. For the same molecule, the GI50 (HCT-15 colon) was 18.4 µM, the TGI (HCT-15 colon) was over 100 µM and the GI50 (UACC-62 melanoma) was 1.21 µM. It also gave a TGI (UACC-62 melanoma) of 4.42 µM, a GI50 (HCT-116 colon) of 2.07 µM and a TGI (HCT-116 colon) of over 33.9 µM. For the same molecule, the GI50 (SNB-75 CNS) was 1.5 µM, the TGI (SNB-75 CNS) was over 51.9 µM and the GI50 (UACC-257 melanoma) was 2.23 µM. For the same molecule, the TGI (UACC-257 melanoma) was 30.5 µM, the GI50 (SN12C renal) was 3.85 µM and the TGI (SN12C renal) was 62.4 µM. It also gave a GI50 (786-0 renal) of 6.18 µM, a TGI (786-0 renal) of over 73.1 µM and a GI50 (OVCAR-3 ovarian) of 2.71 µM. It also gave a TGI (OVCAR-3 ovarian) of 15.3 µM, a GI50 (HL-60(TB) leukemia) of 3.53 µM and a TGI (HL-60(TB) leukemia) of over 62.3 µM. For the same molecule, the GI50 (RXF 393 renal) was 0.796 µM, the TGI (RXF 393 renal) was 3.85 µM and the GI50 (A549 NSCLC) was 6.12 µM. The TGI (A549 NSCLC) was over 92.7 µM, the GI50 (BT-549 breast) was 12.5 µM and the TGI (BT-549 breast) was over 84.3 µM. For the same molecule, the GI50 (MDA-MB-231 breast) was 2.99 µM, the TGI (MDA-MB-231 breast) was 14.7 µM and the GI50 (T-47D breast) was 0.907 µM. The TGI (T-47D breast) was 5.83 µM, the GI50 (PC-3 prostate) was 4.87 µM and the TGI (PC-3 prostate) was over 100 µM. For the same molecule, the GI50 (SF-539 CNS) was 2.92 µM, the TGI (SF-539 CNS) was 52.3 µM and the GI50 (ACHN renal) was 3.99 µM. The TGI (ACHN renal) was 23.2 µM, the GI50 (NCI-H522 lung) was 0.786 µM and the TGI (NCI-H522 lung) was 5.66 µM. The GI50 (M14 melanoma) was 3.57 µM and the TGI (M14 melanoma) was over 100 µM.
